Measured values from publication PMC11672152 (JACS Au, 2024).

How the values were obtained:
[1] = test system: ^1O2 in chloroplasts of N. benthamiana leaf discs; assay: In vivo 1O2 level in chloroplasts of leaf discs; format: cell-based, Nicotiana benthamiana; conditions: MV 0.35 μM, SOSG 10 μM; MV(+) vs MV(−); n = 8; Figure S22
[2] = test system: •OH in chloroplasts of N. benthamiana leaf discs; assay: In vivo •OH level in chloroplasts of leaf discs; format: cell-based, Nicotiana benthamiana; conditions: MV 0.35 μM, HPF 5 μM; MV(+) vs MV(−); n = 8; Figure S22
[3] = In vitro •OH-scavenging capacity; format: biochemical; conditions: amino acid 80 μM; Cys, Met and Trp compared, normalized to Cys; Figure S18
[4] = In vitro 1O2-scavenging capacity; format: biochemical; conditions: amino acid 80 μM; normalized to Cys; Figure S18

C[n+]1ccc(-c2cc[n+](C)cc2)cc1 [MV, methyl viologen]
effect on cellular levels of 1O2 [1]: did not affect those of ^1O2
effect on cellular levels of •OH [2]: elevated the cellular levels of •OH

N[C@@H](Cc1c[nH]c2ccccc12)C(=O)O [Trp, tryptophan]
•OH-scavenging capacity of amino acids [3]: highest •OH-scavenging capacity

CSCC[C@H](N)C(=O)O [Met, methionine]
1O2-scavenging capacity of amino acids compared with Trp [4]: more effective scavengers for ^1O2 than Trp

N[C@@H](CS)C(=O)O [Cys, cysteine]
1O2-scavenging capacity of amino acids compared with Trp [4]: more effective scavengers for ^1O2 than Trp
